Test results taken from patent publication US20170044107A1, “Inhibitors of JMJD2C as Anticancer Agents” (The J. David Gladstone Institutes, priority 2014, published 2017).
Structures can show the parent of a compound that is named as a salt.

Assays:
Format in all cases: cell-based
[1] = tested on: PC3 androgen-independent prostate cancer cells; assay: CellTiter-Glo Luminescent Cell Viability Assay, PC3 cells; conditions: 48 hours treatment, % of survival normalized to DMSO control; for viability at 2 µM: Homo sapiens, PC-3, compound at 2 μM
Experimental: (§1) Cell viability assays were performed on three representative prostate cancer cell lines (i.e., CWR22Rvl, PC3 and DU145) to determine the effect of treatment with a series of 8-hydroxyquinoline derivatives.
(§2) Cell viability was assessed 48 hours after compound treatment with the CellTiter-Glo® Luminescent Cell Viability Assay (Promega), according to the manufacturer's protocol. Briefly, 5000 cells were plated into 96-well cell culture plates in DMEM supplemented with 10% FBS. After overnight incubation, compounds at indicated concentrations were added and the treatment was maintained for two days. At the end of compound treatment, 5.0 μL of CellTiter-Glo® Reagent was added to each well. Plates were returned to the incubator for 2 hours. Plates were then removed from the incubator and luminescence was measured in a standard luminescence plate reader. The luminescence signal was then used to calculate % of survival normalized to DMSO control treatment.

[2] = tested on: CWR22Rv1 androgen-independent prostate cancer cells; assay: CellTiter-Glo Luminescent Cell Viability Assay, CWR22Rv1 cells; conditions: 48 hours treatment, % of survival normalized to DMSO control; for viability at 10 µM: CWR22Rv1, compound at 10 μM
Experimental: as §1, §2

[3] = tested on: DU145 androgen-independent prostate cancer cells; assay: CellTiter-Glo Luminescent Cell Viability Assay, DU145 cells; conditions: 48 hours treatment, % of survival normalized to DMSO control; for viability at 2 µM: Homo sapiens, DU-145, compound at 2 μM
Experimental: as §1, §2

| Compound | viability at 2 µM [1] | viability at 10 µM [2] | viability at 2 µM [3] | % PC3 Survival (Compound at 2 μM) [1] | % CWR22Rv1 Survival (Compound at 10 μM) [2] | % DU145 Survival (Compound at 2 μM) [3] |
| --- | --- | --- | --- | --- | --- | --- |
| O=C(COc1ccccc1)NC(c1ccco1)c1cc(Cl)c2cccnc2c1O (stereo not drawn) [SD70-7, N-((5-chloro-8-hydroxyquinolin-7-yl)(furan-2-yl)methyl)-2-phenoxyacetamide] | 21% | 28% | 21% |  |  |  |
| Oc1c(CN2CCN(c3ccccn3)CC2)ccc2cccnc12 [SD70-18, 7-((4-(pyridin-2-yl)piperazin-1-yl)methyl)quinolin-8-ol] | 125% | 27% | 110% |  |  |  |
| CC(C)C(=O)NC(c1ccc([N+](=O)[O-])cc1)c1ccc2cccnc2c1O (stereo not drawn) [SD70-25, N-((8-hydroxyquinolin-7-yl)(4-nitrophenyl)methyl)isobutyramide] |  | 16% |  |  |  |  |
| COc1ccc(C(=O)NC(c2ccco2)c2cc(Cl)c3cccnc3c2O)cc1 (stereo not drawn) [SD70-6, N-((5-chloro-8-hydroxyquinolin-7-yl)(furan-2-yl)methyl)-4-methoxybenzamide] | 24% | 21% | 50% |  |  |  |
| CCC(=O)NC(c1ccc(OC)c(OC)c1)c1cc(Cl)c2cccnc2c1O (stereo not drawn) [SD70-9, N-((5-chloro-8-hydroxyquinolin-7-yl)(3,4-dimethoxyphenyl)methyl)propionamide] | 21% | 18% | 10% |  |  |  |
| Oc1ccc(CCl)c2cccnc12 [SD70-15, 5-(chloromethyl)quinolin-8-ol hydrochloride] | 96% | 91% | 100% |  |  |  |
| CC(=O)NC(c1ccco1)c1cc(Cl)c2cccnc2c1O (stereo not drawn) [SD70-3, N-((5-chloro-8-hydroxyquinolin-7-yl)(furan-2-yl)methyl)acetamide] | 88% | 110% | 110% |  |  |  |
| CCC(=O)NC(c1ccco1)c1ccc2cccnc2c1O (stereo not drawn) [SD70-11, N-(furan-2-yl(8-hydroxyquinolin-7-yl)methyl)propionamide] | 79% | 16% | 120% |  |  |  |
| O=C(NC(c1ccco1)c1cc(Cl)c2cccnc2c1O)c1cccnc1 (stereo not drawn) [SD70-5, N-((5-chloro-8-hydroxyquinolin-7-yl)(furan-2-yl)methyl)nicotinamide] | 23% | 94% | 31% |  |  |  |
| CC(C)C(=O)NC(c1ccco1)c1ccc2cccnc2c1O (stereo not drawn) [SD70, N-(furan-2-yl(8-hydroxyquinolin-7-yl)methyl)isobutyramide] | 14% | 9% | 26% |  |  |  |
| CCC(=O)NC(c1ccccc1OC)c1cc(Cl)c2cccnc2c1O (stereo not drawn) [SD70-8, N-((5-chloro-8-hydroxyquinolin-7-yl)(2-methoxyphenyl)methyl)propionamide] | 61% | 10% | 42% |  |  |  |
| Oc1c(CN2CCCCC2)ccc2cccnc12 [SD70-20, 7-(piperidin-1-ylmethyl)quinolin-8-ol] | 98% | 99% | 88% |  |  |  |
| COc1ccc(C(NC(=O)C(C)C)c2ccc3cccnc3c2O)cc1OC (stereo not drawn) [SD70-24, N-((3,4-dimethoxyphenyl)(8-hydroxyquinolin-7-yl)methyl)isobutyramide] |  | 12% |  |  |  |  |
| Oc1ccc(CNCCN2CCOCC2)c2cccnc12 [SD70-17, 5-((2-morpholinoethylamino)methyl)quinolin-8-ol] | 98% | 7% | 100% |  |  |  |
| COc1c(C(NC(=O)C(C)C)c2ccco2)ccc2cccnc12 (stereo not drawn) [SD70-23, N-(furan-2-yl(8-methoxyquinolin-7-yl)methyl)isobutyramide] |  | 96% |  |  |  |  |
| CC(C)C(=O)NC(c1ccco1)c1cc(Cl)c2cccnc2c1O (stereo not drawn) [SD70-2, N-((5-chloro-8-hydroxyquinolin-7-yl)(furan-2-yl)methyl)isobutyramide] | 9% | 100% | 32% |  |  |  |
| Oc1ccc(COCc2ccccc2)c2cccnc12 [SD70-16, 5-(benzyloxymethyl)quinolin-8-ol] | 14% | 20% | 19% |  |  |  |
| CCC(=O)NC(c1ccco1)c1cc(Cl)c2cccnc2c1O (stereo not drawn) [SD70-1, N-((5-chloro-8-hydroxyquinolin-7-yl)(furan-2-yl)methyl)propionamide] | 47% | 93% | 87% |  |  |  |
| Oc1c(CNCCN2CCOCC2)ccc2cccnc12 [SD70-19, 7-((2-morpholinoethylamino)methyl)quinolin-8-ol] | 98% | 107% | 94% |  |  |  |
| CCC(=O)NC(c1ccco1)c1cc([N+](=O)[O-])c2cccnc2c1O (stereo not drawn) [SD70-10, N-(furan-2-yl(8-hydroxy-5-nitroquinolin-7-yl)methyl)propionamide] | 93% | 110% | 100% |  |  |  |
| CCCC(=O)NC(c1ccco1)c1cc(Cl)c2cccnc2c1O (stereo not drawn) [SD70-4, N-((5-chloro-8-hydroxyquinolin-7-yl)(furan-2-yl)methyl)butyramide] | 7% | 110% | 29% |  |  |  |
| N-((8-hydroxyquinolin-7-yl)(4-methoxyphenyl)methyl)isobutyramide isobutyramide [SD70-22] |  |  |  | 13% | 18% | 21% |
| CC(C)CCNCc1ccc2cccnc2c1O [SD70-21, 7-((isopentylamino)methyl)quinolin-8-ol] | 93% | 93% | 100% |  |  |  |
